Assay results taken from patent US20260049085A1, “CYCLIC COMPOUNDS AND METHODS OF USING SAME” (SCHRÖDINGER, INC., priority 2022, published 2026).

Target: T1, full-length MALT1 protein His-MALT1(1-824) (Homo sapiens, UniProt Q9UDY8)
T1 construct: full-length MALT1 protein His-MALT1(1-824); His (N); made in house; host or cells: baculovirus-infected insect cells
T1 sequence (Q9UDY8 1-824): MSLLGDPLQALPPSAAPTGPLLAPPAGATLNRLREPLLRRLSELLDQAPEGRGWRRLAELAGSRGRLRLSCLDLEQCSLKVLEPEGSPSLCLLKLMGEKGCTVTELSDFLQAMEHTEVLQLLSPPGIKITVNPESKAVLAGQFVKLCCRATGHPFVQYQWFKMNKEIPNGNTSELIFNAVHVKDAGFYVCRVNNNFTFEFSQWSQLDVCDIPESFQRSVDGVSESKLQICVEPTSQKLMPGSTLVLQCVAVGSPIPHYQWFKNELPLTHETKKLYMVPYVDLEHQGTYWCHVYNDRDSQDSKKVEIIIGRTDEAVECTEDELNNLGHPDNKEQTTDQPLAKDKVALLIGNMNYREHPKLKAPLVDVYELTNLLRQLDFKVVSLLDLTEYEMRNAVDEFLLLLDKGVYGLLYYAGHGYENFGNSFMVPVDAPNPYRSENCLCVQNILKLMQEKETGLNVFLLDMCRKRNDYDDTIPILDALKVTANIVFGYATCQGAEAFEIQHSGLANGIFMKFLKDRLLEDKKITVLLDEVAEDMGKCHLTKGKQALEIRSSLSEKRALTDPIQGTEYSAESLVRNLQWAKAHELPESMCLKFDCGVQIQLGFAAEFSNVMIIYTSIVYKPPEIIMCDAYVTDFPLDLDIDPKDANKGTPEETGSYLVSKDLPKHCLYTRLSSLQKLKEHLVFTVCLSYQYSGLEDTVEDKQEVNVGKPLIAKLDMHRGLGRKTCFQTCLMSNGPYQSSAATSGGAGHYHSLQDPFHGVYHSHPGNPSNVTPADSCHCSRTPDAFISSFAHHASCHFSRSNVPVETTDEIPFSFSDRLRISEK
Assay: MALT1 protease assay (Ac-LRSR-AMC tetrapeptide substrate, fluorescence)
Assay type: biochemical
Details: 1 nM MALT1, 25 μM Ac-LRSR-AMC, 2 h pre-incubation, 8 hr incubation at RT
Procedure, shortened: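 Full-length His-MALT1(1-824) from baculovirus-infected insect cells (1 nM) was pre-incubated 2 h at RT with compounds (0.1% DMSO), then 25 μM Ac-LRSR-AMC added in 50 mM Tris pH 7.5, 600 mM sodium citrate, 1 mM DTT, 1 mM EDTA, 0.05% BSA. Fluorescence (ex 355/em 460 nm) read after 8 h at RT; IC50 by non-linear regression of % remaining activity.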

**Q.** For `CC(F)(F)n1ccc([C@]2(C)C[C@@H](C(=O)Nc3cnc(-c4ncccn4)c(C(F)(F)F)c3)c3cnc4cc(F)nn4c32)n1` (single isomer, unassigned) [Example 165, (trans)-8-(1-(1,1-difluoroethyl)-1H-pyrazol-3-yl)-2-fluoro-8-methyl-N-(6-(pyrimidin-2-yl)-5-(trifluoromethyl)pyridin-3-yl)-7,8-dihydro-6H-cyclopenta[e]pyrazolo[1,5-a]pyrimidine-6-carboxamide], which IC50 is on record?
**A.** ≥ 1 µM

**Q.** With `CC(F)(F)n1ccc([C@]2(C)C[C@H](C(=O)Nc3cnc(-c4ncccn4)c(C(F)(F)F)c3)c3cnc4cc(F)nn4c32)n1` (single isomer, unassigned) [Example 166, (cis)-8-(1-(1,1-difluoroethyl)-1H-pyrazol-3-yl)-2-fluoro-8-methyl-N-(6-(pyrimidin-2-yl)-5-(trifluoromethyl)pyridin-3-yl)-7,8-dihydro-6H-cyclopenta[e]pyrazolo[1,5-a]pyrimidine-6-carboxamide] as the compound, how does the IC50 read?
**A.** 0.1 to 1 µM

**Q.** For `CC(F)(F)n1ccc([C@@]2(C)C[C@@H](C(=O)Nc3cnc(-c4ncccn4)c(C(F)(F)F)c3)c3cnc4cc(F)nn4c32)n1` (single isomer, unassigned) [Example 167, (cis)-8-(1-(1,1-difluoroethyl)-1H-pyrazol-3-yl)-2-fluoro-8-methyl-N-(6-(pyrimidin-2-yl)-5-(trifluoromethyl)pyridin-3-yl)-7,8-dihydro-6H-cyclopenta[e]pyrazolo[1,5-a]pyrimidine-6-carboxamide], which IC50 is on record?
**A.** 0.1 to 1 µM

**Q.** With `CC(F)(F)n1ccc([C@@]2(C)C[C@H](C(=O)Nc3cnc(-c4ncccn4)c(Cl)c3)c3cnc4cc(F)nn4c32)n1` (single isomer, unassigned) [Example 168] as the compound, how does the IC50 read?
**A.** 0.01 to 0.1 µM

**Q.** Which IC50 does the source give for `CC(F)(F)n1ccc([C@]2(C)C[C@@H](C(=O)Nc3cnc(-c4ncccn4)c(Cl)c3)c3cnc4cc(F)nn4c32)n1` (single isomer, unassigned) [Example 169] here?
**A.** ≥ 1 µM

**Q.** How did the IC50 turn out when `C[C@]1(c2ccn(C(F)F)n2)C[C@H](C(=O)Nc2cnc(-c3ncccn3)c(C(F)(F)F)c2)c2cnc3cc(Cl)nn3c21` (single isomer, unassigned) [Example 171] was run?
**A.** < 0.01 µM

**Q.** With `C[C@@]1(c2ccn(C(F)F)n2)C[C@@H](C(=O)Nc2cnc(-c3ncccn3)c(C(F)(F)F)c2)c2cnc3cc(Cl)nn3c21` (single isomer, unassigned) [Example 172] as the compound, how does the IC50 read?
**A.** ≥ 1 µM

**Q.** How did the IC50 turn out when `C[C@@]1(c2ccn(C(F)F)n2)C[C@H](C(=O)Nc2cnc(-c3ncccn3)c(C(F)(F)F)c2)c2cnc3cc(Cl)nn3c21` (single isomer, unassigned) [Example 173] was run?
**A.** 0.01 to 0.1 µM

**Q.** For `C[C@]1(c2ccn(C(F)F)n2)C[C@@H](C(=O)Nc2cnc(-c3ncccn3)c(C(F)(F)F)c2)c2cnc3cc(Cl)nn3c21` (single isomer, unassigned) [Example 174], which IC50 is on record?
**A.** 0.1 to 1 µM

**Q.** Which IC50 does the source give for `C[C@]1(c2cn(C(F)F)nn2)C[C@H](C(=O)Nc2cnc(-n3nccn3)c(Cl)c2)c2cnc3cc(F)nn3c21` (single isomer, unassigned) [Example 175] here?
**A.** 0.01 to 0.1 µM

**Q.** Which IC50 does the source give for `C[C@@]1(c2cn(C(F)F)nn2)C[C@@H](C(=O)Nc2cnc(-n3nccn3)c(Cl)c2)c2cnc3cc(F)nn3c21` (single isomer, unassigned) [Example 176] here?
**A.** ≥ 1 µM

**Q.** Which IC50 does the source give for `C[C@]1(c2cnn(C(F)F)n2)C[C@H](C(=O)Nc2cnc(-n3nccn3)c(Cl)c2)c2cnc3cc(F)nn3c21` (single isomer, unassigned) [Example 177] here?
**A.** < 0.01 µM

**Q.** How did the IC50 turn out when `C[C@@]1(c2cnn(C(F)F)n2)C[C@@H](C(=O)Nc2cnc(-n3nccn3)c(Cl)c2)c2cnc3cc(F)nn3c21` (single isomer, unassigned) [Example 178] was run?
**A.** 0.1 to 1 µM

**Q.** Which IC50 does the source give for `COc1cc(NC(=O)[C@H]2C[C@](C)(c3ccn(C(F)F)n3)c3c2cnc2cc(F)nn32)cnc1-c1ncccn1` (single isomer, unassigned) [Example 179] here?
**A.** ≥ 1 µM

**Q.** For `COc1cc(NC(=O)[C@@H]2C[C@@](C)(c3ccn(C(F)F)n3)c3c2cnc2cc(F)nn32)cnc1-c1ncccn1` (single isomer, unassigned) [Example 180], which IC50 is on record?
**A.** 0.1 to 1 µM

**Q.** Which IC50 does the source give for `COc1cc(NC(=O)[C@H]2C[C@@](C)(c3ccn(C(F)F)n3)c3c2cnc2cc(F)nn32)cnc1-c1ncccn1` (single isomer, unassigned) [Example 181] here?
**A.** ≥ 1 µM

**Q.** How did the IC50 turn out when `COc1cc(NC(=O)[C@@H]2C[C@](C)(c3ccn(C(F)F)n3)c3c2cnc2cc(F)nn32)cnc1-c1ncccn1` (single isomer, unassigned) [Example 182] was run?
**A.** ≥ 1 µM

**Q.** Which IC50 does the source give for `Cc1cc(NC(=O)C2CC(C)(c3ccn(C(F)F)n3)c3c2cnc2cc(F)nn32)cnc1-c1ncccn1` (single isomer, unassigned) [Example 183] here?
**A.** 0.01 to 0.1 µM

**Q.** Which IC50 does the source give for `Cc1cc(NC(=O)C2CC(C)(c3ccn(C(F)F)n3)c3c2cnc2cc(F)nn32)cnc1-c1ncccn1` (single isomer, unassigned) [Example 184] here?
**A.** ≥ 1 µM

**Q.** With `C[C@]1(c2ccn(C(F)F)n2)C[C@H](C(=O)Nc2ccc(-c3ncccn3)c(C(F)(F)F)c2)c2cnc3cc(F)nn3c21` (single isomer, unassigned) [Example 185] as the compound, how does the IC50 read?
**A.** < 0.01 µM

**Q.** Which IC50 does the source give for `C[C@@]1(c2ccn(C(F)F)n2)C[C@@H](C(=O)Nc2ccc(-c3ncccn3)c(C(F)(F)F)c2)c2cnc3cc(F)nn3c21` (single isomer, unassigned) [Example 186] here?
**A.** ≥ 1 µM

**Q.** With `C[C@@]1(c2ccn(C(F)F)n2)C[C@H](C(=O)Nc2ccc(-c3ncccn3)c(C(F)(F)F)c2)c2cnc3cc(F)nn3c21` (single isomer, unassigned) [Example 187] as the compound, how does the IC50 read?
**A.** 0.01 to 0.1 µM

**Q.** How did the IC50 turn out when `C[C@]1(c2ccn(C(F)F)n2)C[C@@H](C(=O)Nc2ccc(-c3ncccn3)c(C(F)(F)F)c2)c2cnc3cc(F)nn3c21` (single isomer, unassigned) [Example 188] was run?
**A.** 0.1 to 1 µM

**Q.** `C[C@]1(c2ccn(C(F)F)n2)C[C@H](C(=O)Nc2ccc(-c3ncccn3)c(Cl)c2)c2cnc3cc(F)nn3c21` (single isomer, unassigned) [Example 189] was tested. Which IC50 did it give?
**A.** 0.01 to 0.1 µM

**Q.** Which IC50 does the source give for `C[C@@]1(c2ccn(C(F)F)n2)C[C@@H](C(=O)Nc2ccc(-c3ncccn3)c(Cl)c2)c2cnc3cc(F)nn3c21` (single isomer, unassigned) [Example 190] here?
**A.** ≥ 1 µM

**Q.** `C[C@@]1(c2ccn(C(F)F)n2)C[C@H](C(=O)Nc2ccc(-c3ncccn3)c(Cl)c2)c2cnc3cc(F)nn3c21` (single isomer, unassigned) [Example 191] was tested. Which IC50 did it give?
**A.** ≥ 1 µM

**Q.** For `C[C@]1(c2ccn(C(F)F)n2)C[C@@H](C(=O)Nc2ccc(-c3ncccn3)c(Cl)c2)c2cnc3cc(F)nn3c21` (single isomer, unassigned) [Example 192], which IC50 is on record?
**A.** 0.1 to 1 µM

**Q.** With `CC1(c2ccn(C(F)F)n2)CC(C(=O)Nc2cnc(-c3ncccn3)c(C(F)F)c2)c2cnc3cc(F)nn3c21` (single isomer, unassigned) [Example 193] as the compound, how does the IC50 read?
**A.** 0.01 to 0.1 µM

**Q.** `CC1(c2ccn(C(F)F)n2)CC(C(=O)Nc2cnc(-c3ncccn3)c(C(F)F)c2)c2cnc3cc(F)nn3c21` (single isomer, unassigned) [Example 194] was tested. Which IC50 did it give?
**A.** ≥ 1 µM

**Q.** `C[C@]1(c2cnn(C(F)F)c2)C[C@H](C(=O)Nc2cnc(-c3ncc(F)cn3)c(C(F)(F)F)c2)c2cnc3cc(F)nn3c21` [Example 132, (6S,8R)-8-(1-(difluoromethyl)-1H-pyrazol-4-yl)-2-fluoro-N-(6-(5-fluoropyrimidin-2-yl)-5-(trifluoromethyl)pyridin-3-yl)-8-methyl-7,8-dihydro-6H-cyclopenta[e]pyrazolo[1,5-a]pyrimidine-6-carboxamide] was tested. Which IC50 did it give?
**A.** 0.01 to 0.1 µM
